From patent US20060079461A1, “Treatment of multiple myeloma by inhibition of p38 MAP kinase” (Scios, Inc., priority 2003, published 2006)

Legend:
VEGF = VEGF secretion from MM contact-activated BMSC; assay type: cell-based, human
From the text: (§1) p38 MAPK controls secretion of these factors in-vitro in systems representing the BM milieu.

IL-11 [1] = assay: IL-1 and TGFβ induction of IL-11 in MM/BMSC cultures; assay type: cell-based, human; conditions: 100 nM
From the text: as §1

PGE2 = PGE2 levels in LPS-induced human whole blood; assay type: cell-based
[2] = system: MM cell lines (U266B, RPMI, ARH-77, and IM9); assay: MM cell proliferation; assay type: cell-based, human; conditions: 72-hour exposure; each of four MM cell lines (U266B, RPMI, ARH-77, IM9)
Hsp27 = assay: Total Hsp27 levels in MM cells; assay type: cell-based, human; conditions: even after prolonged incubation
Procedure: (§2) Total cell lysates are immunoprecipitated with anti-MAPKAPK-2 antibody and subjected to in vitro kinase assays using purified GST-Hsp27 as substrate. To examine Hsp27 phosphorylation in MM and transformed B cells, U266, IM9 and RPMI8226 cells are incubated either with DMSO or with 0.5 μM of a p38 MAPK inhibitor and cell lysates are immunoblotted with antibodies to phospho-Hsp27 (Ser 82) and Hsp27.

MM cells = assay: MM cell viability and proliferation with SN-50 co-exposure; assay type: cell-based; conditions: co-exposure with SN-50
From the text: SN-50 is a cell-permeable specific inhibitor of NF-kappaB nuclear translocation and activity. Nuclear factor-kappaB has been reported to confer significant survival potential in a variety of tumors, including MM cells.

HSP-27 [3] = assay: HSP-27 phosphorylation in BMSC; assay type: cell-based, human
MAPKAPK-2 = MAPKAPK-2 in vitro kinase assay with GST-Hsp27 substrate; assay type: cell-based, human
Procedure: as §2

MKK3 and MKK6 = assay: Activation of p38 MAPK by upstream kinases
BMSC = BMSC viability, MTS assay; assay type: cell-based, human; conditions: tested up to 50-fold excess of active concentration
Procedure: Neither p38 MAPK inhibition nor high concentrations of p38 MAPK inhibitor (tested up to 50-fold excess of active concentration) affected BMSC viability (FIG. 4). Viability was measured using a standard enzymatic assay of respiratory activity, MTS (3-(4,5-dimethylthiazol-2-yl)-5-(3-carboxymethoxyphenyl)-2-(4-sulfophenyl)-2H-tetrazolium). Results obtained with the p38 MAPK inhibitor are in agreement with published results using a different p38α MAPK inhibitor.

[4] = system: human myeloma (RPMI8266) tumor; assay: Beige-nude-xid mouse xenograft plasmacytoma model; assay type: in vivo
From the text: Human-multiple myeloma (MM) is an incurable neoplasm of terminally differentiated B cells and MM disease progression is affected by immunoregulatory elements such as IL-6 and other cytokines. […]

COX-2 mRNA = assay: LPS-induced COX-2 mRNA; assay type: cell-based
HSP-27 [5] = assay: HSP-27 phosphorylation in MM cells (p38 MAPK activity); assay type: cell-based, human
Procedure: as §2
In additional experiments, the p38 MAPK inhibitors are tested for their ability to inhibit Hsp27 phosphorylation. U266, IM9 and RPMI8226 cells are incubated with 0.5 μM of the p38 MAPK inhibitor for 1 hour and Hsp27 proteins are immunoprecipitated with agarose-conjugated Hsp27 antibody, followed by immunoblotting with anti-phospho Hsp27 (Ser 78) antibody.
Specific antibodies to p38 MAP kinase are from Santa Cruz Biotechnology (Santa Cruz, Calif.). Antibodies to phospho-p38 MAP kinase (T180/Y182) and phospho-Hsp27 (S82) are from Cell Signaling (Beverly, Mass.). Antibodies to Hsp27 and phospho-Hsp27 (S78) are from Upstate Biotechnology (Lake Placid, N.Y.). Anti-MAPKAPK-2 is from StressGen (San Diego, Calif.) while anti-GAPDH is from Biogenesis Ltd. (Poole, UK).

TNF-α = assay: LPS-induced TNF-α secretion in whole blood; assay type: cell-based, human
Procedure: Other in vitro assays can assess the production of TNF-α as a correlation to p38 MAP kinase activity. One such example is a Human Whole Blood Assay. In this assay, venous blood is collected from, e.g., healthy male volunteers into a heparinized syringe and is used within 2 hours of collection. Test compounds are dissolved in 100% DMSO and 1 μl aliquots of drug concentrations ranging from 0 to 1 mM are dispensed into quadruplicate wells of a 24-well microtiter plate (Nunclon Delta SI, Applied Scientific Co., San Francisco, Calif.). Whole blood is added at a volume of 1 ml/well and the mixture is incubated for 15 minutes with constant shaking (Titer Plate Shaker, Lab-Line Instruments, Inc., Melrose Park, Ill.) at a humidified atmosphere of 5% CO2 at 37° C. Whole blood is cultured either undiluted or at a final dilution of 1:10 with RPMI 1640 (Gibco 31800+NaHCO3, Life Technologies, Rockville, Md. and Scios, Inc., Sunnyvale, Calif.). At the end of the incubation period, 10 μl of LPS (E. coli 01111:B4, Sigma Chemical Co., St. Louis, Mo.) is added to each well to a final concentration of 1 or 0.1 μg/ml for undiluted or 1:10 diluted whole blood, respectively. The incubation is continued for an additional 2 hours. The reaction is stopped by placing the microtiter plates in an ice bath, and plasma or cell-free supernates are collected by centrifugation at 3000 rpm for 10 minutes at 4° C. […]

purified COX-2 enzyme = target: T1, purified COX-2 enzyme (Homo sapiens, UniProt P35354); assay: Purified COX-2 enzyme activity; assay type: biochemical
T1 sequence (P35354 18-604): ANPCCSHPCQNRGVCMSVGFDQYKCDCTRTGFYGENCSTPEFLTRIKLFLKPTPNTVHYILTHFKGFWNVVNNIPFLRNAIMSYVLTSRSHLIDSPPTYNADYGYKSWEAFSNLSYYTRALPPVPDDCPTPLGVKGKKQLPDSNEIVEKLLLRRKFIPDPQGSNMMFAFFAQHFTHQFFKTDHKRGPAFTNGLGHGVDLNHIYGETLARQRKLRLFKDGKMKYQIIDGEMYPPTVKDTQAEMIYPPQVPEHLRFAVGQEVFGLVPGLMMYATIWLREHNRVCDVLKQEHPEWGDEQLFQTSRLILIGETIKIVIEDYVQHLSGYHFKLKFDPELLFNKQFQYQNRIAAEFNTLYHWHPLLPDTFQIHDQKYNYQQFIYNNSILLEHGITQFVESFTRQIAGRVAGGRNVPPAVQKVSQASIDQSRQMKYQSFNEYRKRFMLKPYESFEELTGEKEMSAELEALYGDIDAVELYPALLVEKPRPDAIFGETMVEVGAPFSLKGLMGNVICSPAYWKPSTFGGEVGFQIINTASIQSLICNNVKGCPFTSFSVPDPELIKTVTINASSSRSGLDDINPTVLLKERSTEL

IL-1β = assay: LPS-induced IL-1β release in human whole blood; assay type: cell-based; conditions: human whole blood (undiluted)
From the text: IL-1β illustrates the importance of amplification loops in myeloma-induced cytokine stimulation. IL-1, plays a well-documented role in the induction of multiple cytokines in a “cytokine network” of feedback loops, including strong induction of IL-6. The ability of IL-1 to increase mRNA expression and induce secretion of the MM-relevant cytokines from MM/BMSC cultures is evidence of this role.

multiple myeloma = assay: Treatment of a patient with multiple myeloma; assay type: in vivo, human
From the text: A patient is diagnosed with multiple myeloma. The patient presents with MM cells with rapid growth rates, which displace osteoblasts, and disrupting the balance of bone creation and destruction. A number of MM-related cytokines, such as IL-6, VEGF, IL-11, and PGE-2 are detectable. […] MM cell growth is inhibited and MM-related cytokine product is reduced.

IL-11 [6] = assay: IL-1 and TGFβ induction of IL-11 in BMSC cultures; assay type: cell-based, human; conditions: 100 nM
From the text: as §1

[7] = in combination with an apoptosis promoting agent

Structure (SMILES): COC(=O)C(=O)c1cn(C(=O)c2ccc(Cl)cc2)c2cc(OC)c(C(=O)N3CCC(Cc4ccccc4)CC3)cc12 [Compound 4]
- VEGF secretion (VEGF): inhibited

Structure (SMILES): C[C@@H]1CN(Cc2ccc(F)cc2)[C@@H](C)CN1C(=O)c1cc2c(C(=O)C(=O)N(C)C)cn(C)c2cc1Cl [Compound 57]
- IL-1 and TGFβ induction of IL-11 at the mRNA and protein levels (IL-11 [1]): blocked
- PGE2 levels (PGE2): reduced
- reduction in proliferation [2]: about 20%
- total Hsp27 levels (Hsp27): does not affect
- reduction of MM cell viability and proliferation caused by SN-50-induced NFκB inhibition (MM cells): enhances the reduction of MM cell viability and proliferation
- phosphorylation of HSP-27 (HSP-27 [3]): blocked phosphorylation of HSP-27 completely
- activity of downstream substrate MAPKAPK-2 (MAPKAPK-2): suppresses
- direct activation of the p38 MAPK enzyme or activity of kinases upstream of p38 MAPK (MKK3 and MKK6): not the direct activation of the p38 MAPK enzyme or the activity of kinases upstream of p38 MAPK
- BMSC viability (BMSC): Neither p38α MAPK inhibition nor high concentrations of Compound 57 (tested up to 50-fold excess of active concentration) affected BMSC viability
- tumor volume, histological assessment ([4]; at the end of dosing, versus vehicle): significant reduction
- number of neoformed microvessels ([4]; histological assessment at the end of dosing): significant reduction
- HSP27 expression in tumor cells ([4]; mouse, in vivo): significantly reduces
- p38 expression in tumor cells ([4]; mouse, in vivo): significantly reduces
- tumor volume ([4]; palpable tumors (~200 mm^3), 90 mg/kg/bid oral gavage, 21 days): significantly reduces
- tumor volume ([4]; treatment initiated at pronounced tumor size (~800 mm^3)): significant reduction
- LPS-induced COX-2 mRNA (COX-2 mRNA): inhibited
- phosphorylation of HSP-27 (HSP-27 [5]; MM cells): blocked phosphorylation of HSP-27 completely
- Hsp27 phosphorylation (HSP-27 [5]; U266, IM9, RPMI8226, cell lysates or immunoprecipitation assays, 0.5 μM): inhibits
- p38 MAPK activity (HSP-27 [5]; immunodetection of p38 MAPK kinase target HSP-27): fully suppressed
- LPS-induced TNF-α secretion (TNF-α): dose-dependent reduction
- activity of the purified COX-2 enzyme (purified COX-2 enzyme): did not directly inhibit
- LPS-induced IL-1β release (IL-1β): dose-dependent reduction
- MM cell growth (multiple myeloma; [7]): inhibited
- MM-related cytokine product (multiple myeloma; [7]): reduced
- MM cell growth (multiple myeloma; therapeutic amount, alone): inhibited
- MM-related cytokine product (multiple myeloma; therapeutic amount, alone): reduced
- IL-1 and TGFβ induction of IL-11 at the mRNA and protein levels (IL-11 [6]): blocked
